# Source: patent US20070155795A1, “MUSCARINIC AGONISTS” (ACADIA Pharmaceuticals Inc., priority 2000, published 2007)
# Tests used:
# Format in all cases: cell-based
# [1] = biological target: T1, m1 muscarinic receptor subtype (Homo sapiens, UniProt P11229); test: R-SAT assay, muscarinic receptor subtype m1; details: transfected NIH-3T3 cells, 5 days; for m1 % Eff: relative to maximum response to carbachol; for EC50: read-out: m1 pEC50 (converted)
# T1 construct: expressed in transfected cells; host or cells: NIH-3T3 (ATCC CRL 1658)
# T1 sequence (P11229 1-460): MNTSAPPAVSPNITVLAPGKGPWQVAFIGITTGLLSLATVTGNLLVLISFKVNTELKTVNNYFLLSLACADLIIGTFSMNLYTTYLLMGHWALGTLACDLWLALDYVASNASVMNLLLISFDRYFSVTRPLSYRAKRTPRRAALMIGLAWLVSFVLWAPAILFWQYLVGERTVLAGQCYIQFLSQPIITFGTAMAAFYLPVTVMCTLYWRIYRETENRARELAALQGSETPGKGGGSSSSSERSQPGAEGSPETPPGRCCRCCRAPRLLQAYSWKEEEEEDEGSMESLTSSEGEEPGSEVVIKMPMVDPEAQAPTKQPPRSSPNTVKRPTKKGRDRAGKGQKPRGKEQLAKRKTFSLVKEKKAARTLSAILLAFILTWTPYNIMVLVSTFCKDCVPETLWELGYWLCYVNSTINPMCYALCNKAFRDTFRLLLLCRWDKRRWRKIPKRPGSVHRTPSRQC
# Procedure: (§1) Transfected cells were grown in the presence of between 1 nM and 40 μM of the test compound for 5 days. On day 5, the cells were lysed using 0.5% Nonidet-P and β-galactosidase expression was quantified using the chromogenic substrate o-nitrophenyl-β-D-galactoside (ONGP).
# (§2) Data were normalized relative to the maximum response of the cells to the muscarinic agonist carbachol, and the following equation was fitted to the data: • response=minimum+(maximum−minimum)/(1+(EC50/[ligand])) • Where [ligand]=ligand concentration. • % Efficacy was defined as: • (maximum−minimum)/(maximum response of cells to carbachol). • pEC50=−log (EC50). • Where data gave a bell-shaped curve, “maximum” was defined as the highest observed response.
# [2] = biological target: T2, m4 muscarinic receptor subtype (Homo sapiens, UniProt P08173); test: R-SAT assay, muscarinic receptor subtype m4; details: transfected NIH-3T3 cells, 5 days; for m4 % Eff: relative to maximum response to carbachol; for EC50: read-out: m4 pEC50 (converted)
# T2 construct: expressed in transfected cells; host or cells: NIH-3T3 (ATCC CRL 1658)
# T2 sequence (P08173 1-479): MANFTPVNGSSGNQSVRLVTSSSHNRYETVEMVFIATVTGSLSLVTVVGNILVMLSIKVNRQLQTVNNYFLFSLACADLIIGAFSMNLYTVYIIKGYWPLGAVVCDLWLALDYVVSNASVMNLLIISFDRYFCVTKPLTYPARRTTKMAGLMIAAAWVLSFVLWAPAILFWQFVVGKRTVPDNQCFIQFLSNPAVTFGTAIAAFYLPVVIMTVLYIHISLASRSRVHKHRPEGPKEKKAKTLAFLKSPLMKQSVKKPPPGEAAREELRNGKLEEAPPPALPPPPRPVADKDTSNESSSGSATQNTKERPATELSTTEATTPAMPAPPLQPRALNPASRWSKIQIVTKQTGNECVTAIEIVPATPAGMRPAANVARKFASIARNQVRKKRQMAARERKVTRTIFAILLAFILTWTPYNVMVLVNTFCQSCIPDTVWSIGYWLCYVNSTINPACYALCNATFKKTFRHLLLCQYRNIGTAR
# Procedure: as §1, §2
# [3] = biological target: T3, m2 muscarinic receptor subtype (Homo sapiens, UniProt P08172); test: R-SAT assay, muscarinic receptor subtype m2; details: transfected NIH-3T3 cells, 5 days, relative to maximum response to carbachol
# T3 construct: expressed in transfected cells; host or cells: NIH-3T3 (ATCC CRL 1658)
# T3 sequence (P08172 1-466): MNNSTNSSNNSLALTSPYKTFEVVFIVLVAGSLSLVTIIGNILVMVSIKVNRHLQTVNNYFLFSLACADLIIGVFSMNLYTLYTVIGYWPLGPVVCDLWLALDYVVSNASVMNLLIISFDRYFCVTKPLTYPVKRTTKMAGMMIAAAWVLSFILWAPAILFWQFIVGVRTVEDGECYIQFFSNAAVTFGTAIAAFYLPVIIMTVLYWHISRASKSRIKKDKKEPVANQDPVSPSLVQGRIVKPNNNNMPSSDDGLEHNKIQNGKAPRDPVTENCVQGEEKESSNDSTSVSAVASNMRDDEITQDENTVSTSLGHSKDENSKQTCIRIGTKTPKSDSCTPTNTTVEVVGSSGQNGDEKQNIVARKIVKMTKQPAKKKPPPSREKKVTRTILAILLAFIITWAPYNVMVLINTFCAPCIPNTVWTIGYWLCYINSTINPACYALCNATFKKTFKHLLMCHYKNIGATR
# Procedure: (§3) Screening Of Test Compounds In An Assay Using Muscarinic Receptor Subtypes m1, m2, m3, m4 and m5. The m1, m2, m3, m4 and m5 muscarinic receptor subtypes were cloned substantially as described by Bonner et al., Science […] and Bonner et al., Neuron 1:403 (1988). R-SAT assays were carried out substantially as described in U.S. Pat. Nos. 5,707,798, 5,912,132, and 5,955,281, and by Braüner-Osborne & Brann, Eur. J. Pharmacol. 295:93 (1995). NIH-3T3 cells (available from the American Type Culture Collection as ATCC CRL 1658) were transfected with plasmid DNA encoding the m1, m2, m3, m4 or m5 receptors and plasmid DNA encoding β-galactosidase. Transfected cells were grown in the presence of between 1 nM and 40 μM of the test compound for 5 days. On day 5, the cells were lysed using 0.5% Nonidet-P and β-galactosidase expression was quantified using the chromogenic substrate o-nitrophenyl-β-D-galactoside (ONGP).
# as §2
# [4] = biological target: T4, m3 muscarinic receptor subtype (Homo sapiens, UniProt P20309); test: R-SAT assay, muscarinic receptor subtype m3; details: transfected NIH-3T3 cells, 5 days, relative to maximum response to carbachol
# T4 construct: expressed in transfected cells; host or cells: NIH-3T3 (ATCC CRL 1658)
# Procedure: as §3, §2
# [5] = biological target: T5, m5 muscarinic receptor subtype (Homo sapiens, UniProt P08912); test: R-SAT assay, muscarinic receptor subtype m5; details: transfected NIH-3T3 cells, 5 days; for m5 % Eff: relative to maximum response to carbachol
# T5 construct: expressed in transfected cells; host or cells: NIH-3T3 (ATCC CRL 1658)
# T5 sequence (P08912 1-532): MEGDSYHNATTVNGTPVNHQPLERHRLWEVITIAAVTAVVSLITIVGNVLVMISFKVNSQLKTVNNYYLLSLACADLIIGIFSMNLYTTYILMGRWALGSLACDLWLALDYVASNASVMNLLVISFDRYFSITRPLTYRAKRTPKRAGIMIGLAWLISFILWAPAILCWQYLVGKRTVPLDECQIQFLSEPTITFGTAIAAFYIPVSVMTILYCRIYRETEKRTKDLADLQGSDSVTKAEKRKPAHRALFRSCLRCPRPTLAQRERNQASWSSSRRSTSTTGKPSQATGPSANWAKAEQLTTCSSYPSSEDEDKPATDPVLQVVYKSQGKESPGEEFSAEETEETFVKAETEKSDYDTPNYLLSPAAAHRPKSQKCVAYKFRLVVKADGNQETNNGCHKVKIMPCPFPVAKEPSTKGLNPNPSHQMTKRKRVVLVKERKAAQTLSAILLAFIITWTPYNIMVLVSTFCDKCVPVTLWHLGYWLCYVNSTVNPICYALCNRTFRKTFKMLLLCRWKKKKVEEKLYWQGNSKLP
# Procedure: as §3, §2
# T4 sequence (P20309 whole entry): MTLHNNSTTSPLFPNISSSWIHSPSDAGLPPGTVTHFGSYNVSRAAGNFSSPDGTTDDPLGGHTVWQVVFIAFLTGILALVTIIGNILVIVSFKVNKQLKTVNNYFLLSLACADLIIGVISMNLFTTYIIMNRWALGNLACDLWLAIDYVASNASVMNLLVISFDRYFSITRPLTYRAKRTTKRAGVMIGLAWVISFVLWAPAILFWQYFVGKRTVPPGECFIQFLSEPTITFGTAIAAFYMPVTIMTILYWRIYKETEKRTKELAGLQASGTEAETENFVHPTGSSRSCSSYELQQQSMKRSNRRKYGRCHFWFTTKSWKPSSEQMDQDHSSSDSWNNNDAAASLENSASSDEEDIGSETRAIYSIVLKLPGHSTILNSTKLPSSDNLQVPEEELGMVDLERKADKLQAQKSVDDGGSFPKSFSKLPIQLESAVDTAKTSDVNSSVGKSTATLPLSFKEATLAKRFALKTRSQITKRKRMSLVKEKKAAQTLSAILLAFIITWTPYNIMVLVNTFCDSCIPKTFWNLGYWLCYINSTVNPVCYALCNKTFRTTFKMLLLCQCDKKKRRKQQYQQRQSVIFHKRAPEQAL
Compound,m1 pEC50 [1],m1 % Eff [1] [%],m4 pEC50 [2],m4 % Eff [2],EC50 [1] [nM],EC50 [2] [nM],EC50 ([5]; read-out: m5 pEC50 (converted)) [nM],m2 % Eff [3],m3 % Eff [4],m5 % Eff [5]
"1-[3-(4-Butyl-piperidin-1-yl)-propyl]-5,6-dimethyl-1H-benzoimidazole [Example 81]",6.4,72,<5.5,77%,,,,,,
"CC(C)CCC1CCN(CCCn2ncc3ccccc32)CC1 [Example 42, 1-(3-(4-(3-Methyl-butyl)-piperidine)-1-yl-propyl)-1H-indazole]",7.1,51,,,,,,,,
2-[3-(4-Butylpiperidin-1-yl)-propyl]-1-methyl-1H-benzimidazole [Example 73],6.2,37,,no response (No response: Efficacy <25% maximum response of carbachol. This level of activity is not considered significantly different to no response.),,,,,,
"CCC=C1CCN(CCCn2ncc3ccccc32)CC1 [Example 44, 1-(3-(4-Propylidene-piperidine)-1-yl-propyl)-1H-indazole]",6.1,72,,,,,,,,
"CCCCC1CCN(CCCc2nc3c([N+](=O)[O-])cccc3[nH]2)CC1 [Example 28, 4-Nitro-2-(3-(4-n-butylpiperidine)-1-yl-propyl)-1H-benzoimidazole]",6.5,38,,no response (No response: Efficacy <25% maximum response of carbachol. This level of activity is not considered significantly different to no response.),,,,,no response (No response: Efficacy <25% maximum response of carbachol. This level of activity is not considered significantly different to no response.),no response (No response: Efficacy <25% maximum response of carbachol. This level of activity is not considered significantly different to no response.)
3-[3-(4-Butyl-piperidin-1-yl)-propyl]-benzo[d]isothiazole [Example 93],7.1,83,6.4,58%,,,,no response (No response: Efficacy <25% maximum response of carbachol. This level of activity is not considered significantly different to no response.),no response (No response: Efficacy <25% maximum response of carbachol. This level of activity is not considered significantly different to no response.),no response (No response: Efficacy <25% maximum response of carbachol. This level of activity is not considered significantly different to no response.)

# Now from value to compound, other results behind:
m1 pEC50 [1],m1 % Eff [1] [%],m4 pEC50 [2],m4 % Eff [2],EC50 [1] [nM],EC50 [2] [nM],EC50 ([5]; read-out: m5 pEC50 (converted)) [nM],Compound,m2 % Eff [3],m3 % Eff [4],m5 % Eff [5]
,75,,41%,126,501,,"CCCCC1CCN(CCCc2noc3ccccc23)CC1 [Example 24, 3-(3-(4-n-Butylpiperidine)-1-yl-propyl)-benzo[d]isoxazole]",no response (No response: Efficacy <25% maximum response of carbachol. This level of activity is not considered significantly different to no response.),no response (No response: Efficacy <25% maximum response of carbachol. This level of activity is not considered significantly different to no response.),no response (No response: Efficacy <25% maximum response of carbachol. This level of activity is not considered significantly different to no response.)
5.9,59,,,,,,"CCCCC1CCN(CCCn2ccc3ccccc32)CC1 [Example 12, 1-(3-(4-n-Butylpiperidine)-1-yl-propyl)-1H-indole]",no response (No response: Efficacy <25% maximum response of carbachol. This level of activity is not considered significantly different to no response.),no response (No response: Efficacy <25% maximum response of carbachol. This level of activity is not considered significantly different to no response.),no response (No response: Efficacy <25% maximum response of carbachol. This level of activity is not considered significantly different to no response.)
,66,,30%,501,1000,,"CCCCC=C1CCN(CCCn2ncc3ccccc32)CC1 [Example 43, 1-(3-(4-Pentylidene-piperidine)-1-yl-propyl)-1H-indazole]",,,no response (No response: Efficacy <25% maximum response of carbachol. This level of activity is not considered significantly different to no response.)
,81,,69%,126,631,> 3160,"CCCC1CCN(CCCn2ncc3ccccc32)CC1 [Example 41, 1-(3-(4-Propylpiperidine)-1-yl-propyl)-1H-indazole]",no response (No response: Efficacy <25% maximum response of carbachol. This level of activity is not considered significantly different to no response.),no response (No response: Efficacy <25% maximum response of carbachol. This level of activity is not considered significantly different to no response.),31%
6.0,45,<5.5,34%,,,,"CCCCC1CCN(CCCn2nc(Cl)c3ccccc32)CC1 [Example 65, 1-[3-(4-Butylpiperidin-1-yl)-propyl]-3-chloro-1H-indazole]",no response (No response: Efficacy <25% maximum response of carbachol. This level of activity is not considered significantly different to no response.),,
7.0,71,6.3,96%,,,,"CCCCC1CCN(CCCn2c(C)cc3ccccc32)CC1 [Example 77, 1-[3-(4-Butyl-piperidin-1-yl)-propyl]-2-methyl-1H-indole]",,,
